Measured values reported in US20060029995A1, “Novel class of metacaspases” (Vlaams Interuniversitair Instituut Voor Biotechnologie VZW, priority 2003, published 2006).
Where two headings read alike, the source gives them in different places. Starred links: 1 amine or outer side, 2 acyl side, 3 side chain; linkers in the order of their positions; H or OH if unused. Non-standard residues stand in square brackets, D forms with d. Residues, ends and D or L forms follow the SMILES beside them. *: point of attachment. Sta = CC(C)C[C@H](N)[C@@H](O)CC(=O)O; AMC = Cc1cc(=O)oc2cc(N*)ccc12; Isovaleryl = CC(C)CC(=O)*; code Z = not defined here; Cbz = O=C(OCc1ccccc1)*; Boc = CC(C)(C)OC(=O)*; CO = O=C([*:1])[*:2]; CH2F = FC*

Assays:
Atmc9 [1] = target: T1, Atmc9 (Arabidopsis thaliana, UniProt Q9FYE1); format: biochemical; conditions: for inhibition / inactivation of Atmc9: no concentration stated; for inhibition of Atmc9 activity: at the millimolar range
T1 construct: it indeed consists of amino acids 184 to 325 (calculated mass 15427 Da); made in house; host or cells: E. coli BL21(DE3), pDEST17, Ni-NTA purified
T1 sequence (Q9FYE1 1-183 limits assumed): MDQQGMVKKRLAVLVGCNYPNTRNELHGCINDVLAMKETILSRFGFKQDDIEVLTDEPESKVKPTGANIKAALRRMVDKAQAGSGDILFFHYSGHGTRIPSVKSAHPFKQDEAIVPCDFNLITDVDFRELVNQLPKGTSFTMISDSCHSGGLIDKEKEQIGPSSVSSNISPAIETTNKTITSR
T1 sequence (Q9FYE1 184-325 limits assumed): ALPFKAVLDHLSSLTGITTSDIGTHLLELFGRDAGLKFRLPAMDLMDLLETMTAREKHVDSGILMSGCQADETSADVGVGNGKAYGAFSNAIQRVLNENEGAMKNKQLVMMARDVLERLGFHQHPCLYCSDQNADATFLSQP
Procedure: Assays were performed in 150 μl with 400 ng of purified Atmc9 and 50 μM substrate in an optimized metacaspase 9 assay buffer (50 mM MES pH 5.3, 10% (w/v) sucrose, 0.1% (w/v) 3-[(3-cholamidopropyl)dimethylammonio]-1-propanesulfonate [CHAPS], 10 mM DTT). Time-dependent release of free amido-4-methylcoumarin (AMC) was measured on a Cytofluor 4000 fluorescence microplate reader (PerSeptive Biosystems, Farmingham, Md., USA).
We also assessed the sensitivity of Atmc9 for several protease inhibitors, chelating agents, metal ions, and stabilizing agents in the GKR-ase assay (Table 2). […] To optimize the assay conditions for Atmc9 activity, several stabilizing agents were tested.
Percentage of the activity of recombinant Atmc9 in 50 mM MES (pH 5.3) and 10 mM DTT.

metacaspase 3 = target: T2, metacaspase 3 (Arabidopsis thaliana, UniProt Q9FMG1); assay: Cleavage of fluorescent artificial substrates by purified metacaspase 3; format: biochemical; conditions: assay buffers of pHs ranging from 4.5 to 9.0 (MES 50 mM)
T2 construct: made in house; host or cells: bacterial production, pDEST17 (E. coli by the general method)
T2 sequence (Q9FMG1 1-362 R151K/L157V/V158I/Q177E): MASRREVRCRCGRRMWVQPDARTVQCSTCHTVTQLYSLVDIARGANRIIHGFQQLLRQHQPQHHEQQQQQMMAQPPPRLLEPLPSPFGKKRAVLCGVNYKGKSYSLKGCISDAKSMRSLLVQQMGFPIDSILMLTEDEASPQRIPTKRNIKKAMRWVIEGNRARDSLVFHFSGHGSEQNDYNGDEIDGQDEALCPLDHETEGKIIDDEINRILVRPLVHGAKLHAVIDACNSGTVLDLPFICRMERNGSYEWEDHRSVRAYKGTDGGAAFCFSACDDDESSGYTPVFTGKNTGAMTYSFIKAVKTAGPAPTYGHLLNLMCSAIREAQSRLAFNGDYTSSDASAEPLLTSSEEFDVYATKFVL
Excerpt: For generation of the prodomain deletion mutant of Arabidopsis thaliana metacaspase 3 (MC3ΔN), residues 1 to 91 were replaced by a methionine residue by PCR, using 5′-[…]-3′ (SEQ ID NO:43) as the forward primer and 5′-[…]-3′ (SEQ ID NO:17) as the reverse primer. 5′ extensions used for Gateway™ (Invitrogen) cloning were 5′-[…]-3′ (SEQ ID NO:44) for forward primers and 5′-[…]-3′ (SEQ ID NO:45) for reverse primers. For bacterial production, the cDNA's were cloned into the bacterial expression vector pDEST17™ (Invitrogen), resulting in the amino-terminal translational addition of the following HIS6 tag-containing sequence: […] (SEQ ID NO:37).
Activity of purified metacaspase 3 was tested with different fluorescent substrates in assay buffers of pHs ranging from 4.5 to 9.0 (MES 50 mM). The substrates tested were: Ac-DEVD-AMC, Z-VAD-AMC, Boc-GRR-AMC, Boc-GKR-AMC, Z-FR-AMC and H-AFK-AMC. Only Z-FR-AMC was cut by metacaspase 3.

Atmc9 [2] = target: T1, Atmc9; assay: kcat/Km of artificial substrates of Atmc9; format: biochemical; conditions: summary of Table 1
Procedure: The activity assay buffer used was composed of 50 mM MES pH 5.3, 10% (w/v) sucrose, 0.1% (w/v) 3-[(3-cholamidopropyl)dimethylammonio]-1-propanesulfonate [CHAPS], 10 mM DTT.
Release of free AMC was determined in a time course using a FLUOstar Optima fluorescence plate reader (BMB Lab Technologies, Offenburg, Del.). After total hydrolysis of the substrates, kcatlKm was calculated using the following formula: kcat/Km=kobsIEt, where kobs is determined as the decrease per second of the natural logarithm of substrate left, and Et is the concentration of enzyme active sites in the reaction.

[3] = test system: Lysates from 293T cells overexpressing metacaspases; assay: Caspase substrates incubated with lysates from 293T cells overexpressing metacaspases; format: biochemical, Arabidopsis thaliana
Procedure: For mammalian overexpression, cDNAs for metacaspases were cloned into pDEST26 (Invitrogen, Gaithersburg, Md., USA), resulting in an N-terminal HIS6-fusion under transcriptional control of the constitutive CMV promoter. Human embryonic kidney cells 293T were cultured in DMEM supplemented with 2 mM L-glutamine, 10% fetal calf serum, 106 U/i streptomycin, […] penicillin and 0.4 mM sodium pyruvate. 5×10^5 cells (6 well plate) were seeded and next day transfected using the calcium phosphate method as described previously (Van de Craen et al., 1998).
Lysates from 293T cells overexpressing metacaspases were also incubated with different synthetic fluorigenic substrates for caspases, namely acetyl-Asp-Glu-Val-Asp-aminomethylcoumarin (Ac-DEVD-amc), acetyl-Ile-Glu-Thr-Asp-aminomethylcoumarin (Ac-IETD-amc), Acetyl-Leu-Glys-His-Asp-aminomethylcoumarin (Ac-LEHD-amc), acetyl-Trp-Glu-His-Asp-aminomethylcoumarin (Ac-WEHD-amc), Acetyl-Tyr-Val-Ala-Asp-aminomethylcoumarin (Ac-YVAD-amc) and benzyloxycarbonyl-Val-Ala-Asp-aminomethylcoumarin (zVAD-amc).

CC(C)C[C@H](NC(=O)[C@@H](NC(=O)N[C@@H](Cc1ccccc1)C(=O)O)[C@@H]1CCN=C(N)N1)C(=O)N[C@H](C=O)Cc1ccccc1 [Chymostatin]
inhibition / inactivation of Atmc9 (Atmc9 [1]): weak inhibitors
Activity (%) (Atmc9 [1]; pH 5.3): 33%

O=S(=O)(F)Cc1ccccc1 [PMSF]
inhibition / inactivation of Atmc9 (Atmc9 [1]): no significant blocking capacity
Activity (%) (Atmc9 [1]; reagent 1 mM, % of activity of recombinant Atmc9 in 50 mM MES pH 5.3, 10 mM DTT): 86%

t-butyloxycarbonyl-Gly-Arg-Arg-7-amido-4-methylcoumarin (Boc-Gly-Arg-Arg-{AMC}) [Boc-GRR-AMC]
cleavage by metacaspase 3 (metacaspase 3): No activity was detected
quality as substrate for Atmc9 (Atmc9 [2]): good substrates

Cc1ccc(S(=O)(=O)N[C@@H](Cc2ccccc2)C(=O)CCl)cc1 [TPCK, N^□-tosyl-L-phenylalanyl-chloromethyl ketone]
inhibition / inactivation of Atmc9 (Atmc9 [1]): weak inhibitors
Activity (%) (Atmc9 [1]; pH 5.3): 35%

Aprotinin
inhibition / inactivation of Atmc9 (Atmc9 [1]): no significant blocking capacity
Activity (%) (Atmc9 [1]; pH 5.3): 96%

N=C(N)c1ccccc1 [Benzamidine]
inhibition of Atmc9 activity (Atmc9 [1]): inhibited
Activity (%) (Atmc9 [1]; pH 5.3): 22%

CC(C)CC(=O)N[C@H](C(=O)N[C@H](C(=O)N[C@@H](CC(C)C)[C@@H](O)CC(=O)N[C@@H](C)C(=O)N[C@@H](CC(C)C)[C@@H](O)CC(=O)O)C(C)C)C(C)C [Pepstatin] (Isovaleryl-VV[Sta]A[Sta]-OH)
inhibition / inactivation of Atmc9 (Atmc9 [1]): no significant blocking capacity
Activity (%) (Atmc9 [1]; pH 5.3): 97%

CC(=O)N[C@@H](CC(C)C)C(=O)N[C@@H](CC(C)C)C(=O)N[C@H](C=O)CCCNC(=N)N [Leupeptin]
inhibition of Atmc9 (Atmc9 [1]; at concentrations as low as 1 μM): strongly inhibited
Activity (%) (Atmc9 [1]; pH 5.3): 1%

acetyl-Trp-Glu-His-Asp-aminomethylcoumarin (Ac-WEHD-{AMC}; SMILES CC(=O)N[C@@H](Cc1c[nH]c2ccccc12)C(=O)N[C@@H](CCC(=O)O)C(=O)N[C@@H](Cc1c[nH]cn1)C(=O)N[C@@H](CC(=O)O)C(=O)Nc1ccc2c(C)cc(=O)oc2c1) [Ac-WEHD-amc]
activity of lysates on synthetic fluorigenic caspase substrates [3]: no significant increase in activity

t-butyloxycarbonyl-Gly-Lys-Arg-7-amido-4-methylcoumarin (Boc-Gly-Lys-Arg-{AMC}; SMILES Cc1cc(=O)oc2cc(NC(=O)[C@H](CCCNC(=N)N)NC(=O)[C@H](CCCCN)NC(=O)CNC(=O)OC(C)(C)C)ccc12) [Boc-GKR-AMC]
cleavage by metacaspase 3 (metacaspase 3): No activity was detected
quality as substrate for Atmc9 (Atmc9 [2]): somewhat less good substrate

OC[C@H]1O[C@@](CO)(O[C@H]2O[C@H](CO)[C@@H](O)[C@H](O)[C@H]2O)[C@@H](O)[C@@H]1O [Sucrose]
Activity (%) (Atmc9 [1]; pH 5.3): 121%

Z-YVAD-cmk: caspase inhibitor; cmk, chloromethyl ketone
Activity (%) (Atmc9 [1]; pH 5.3): 100%

CC(C)[C@H](NC(=O)[C@H](CCCNC(=N)N)NC(=O)N[C@@H](Cc1ccccc1)C(=O)O)C(=O)N[C@H](C=O)CCCNC(=N)N [Antipain] ({Phe-CO}-Arg-Val-Arg-aldehyde)
Activity (%) (Atmc9 [1]; pH 5.3): 13%

CC(C)C[C@H](NC(=O)[C@H]1O[C@@H]1C(=O)O)C(=O)NCCCCN=C(N)N (relative stereo) [E-64, L-trans-epoxysuccinyl-leucylamide-(4-guanido)-butane]
inhibition / inactivation of Atmc9 (Atmc9 [1]): no significant blocking capacity
Activity (%) (Atmc9 [1]; pH 5.3): 92%

Acetyl-Leu-Glys-His-Asp-aminomethylcoumarin [Ac-LEHD-amc]
activity of lysates on synthetic fluorigenic caspase substrates [3]: no significant increase in activity

C[C@H](CCC(=O)NCCC[N+](C)(C)CCCS(=O)(=O)[O-])[C@H]1CC[C@H]2[C@@H]3[C@H](O)C[C@@H]4C[C@H](O)CC[C@]4(C)[C@H]3C[C@H](O)[C@]12C [CHAPS, 3-[(3-cholamidopropyl)dimethylammonio]-1-propanesulfonate]
Activity (%) (Atmc9 [1]; pH 5.3): 127%

acetyl-Asp-Glu-Val-Asp-aminomethylcoumarin [Ac-DEVD-AMC]
cleavage by metacaspase 3 (metacaspase 3): No activity was detected
activity of lysates on synthetic fluorigenic caspase substrates [3]: no significant increase in activity

Z-VAD-fmk: caspase inhibitor; fmk, fluoromethyl ketone ({code Z}-Val-Ala-Asp-CH2F; reading uncertain; also: printed as Z-VAD-fmk)
Activity (%) (Atmc9 [1]; pH 5.3): 87%

Z-DEVD-cmk: caspase inhibitor; cmk, chloromethyl ketone
Activity (%) (Atmc9 [1]; pH 5.3): 94%

NC(=O)CI [Iodoacetamide]
inhibition of Atmc9 activity (Atmc9 [1]): inhibited
Activity (%) (Atmc9 [1]; pH 5.3): 8%

Acetyl-Tyr-Val-Ala-Asp-aminomethylcoumarin (Ac-YVAD-{AMC}; SMILES CC(=O)N[C@@H](Cc1ccc(O)cc1)C(=O)N[C@H](C(=O)N[C@@H](C)C(=O)N[C@@H](CC(=O)O)C(=O)Nc1ccc2c(C)cc(=O)oc2c1)C(C)C) [Ac-YVAD-amc]
activity of lysates on synthetic fluorigenic caspase substrates [3]: no significant increase in activity

acetyl-Ile-Glu-Thr-Asp-aminomethylcoumarin (Ac-IETD-{AMC}; SMILES CC[C@H](C)[C@H](NC(C)=O)C(=O)N[C@@H](CCC(=O)O)C(=O)N[C@H](C(=O)N[C@@H](CC(=O)O)C(=O)Nc1ccc2c(C)cc(=O)oc2c1)[C@@H](C)O) [Ac-IETD-amc]
activity of lysates on synthetic fluorigenic caspase substrates [3]: no significant increase in activity

benzyloxycarbonyl-Val-Ala-Asp-aminomethylcoumarin (Cbz-Val-Ala-Asp-{AMC}) [Z-VAD-AMC]
cleavage by metacaspase 3 (metacaspase 3): No activity was detected
activity of lysates on synthetic fluorigenic caspase substrates [3]: no significant increase in activity

B1: Soybean trypsin inhibitor: protease inhibitor (protein)
chain: DFVLDNEGNPLENGGTYYILSDITAFGGIRAAPTGNERCPLTVVQSRNELDKGIGTIISSPYRIRFIAEGHPLSLKFDSFAVIMLCVGIPTEWSVVEDLPEGPAVKIGENKDAMDGWFRLERVSDDEFNNYKLVFCPQQAEDDKCGDIGISIDHDDGTRRLVVSKNKPLVVQFQKLDKESL
inhibition / inactivation of Atmc9 (Atmc9 [1]): no significant blocking capacity
Activity (%) (Atmc9 [1]; pH 5.3): 73%
